Literature values as cited in patent US20230390254A1, “PHARMACEUTICAL COMPOSITIONS OF UBROGEPANT AND PROCESS FOR PREPARATION THEREOF” (Aurobindo Pharma Ltd, priority 2022, published 2023).
Where two headings read alike, the source gives them in different places.

Columns and labels:
[1] = not given; remark: listed apart in the source
[2] = disclosed in U.S. Pat. No. 10,117,836

solubility (in acetone): freely soluble | solubility (in acetonitrile): freely soluble | solubility (in ethanol): freely soluble | solubility (in methanol): freely soluble | solubility (in water): insoluble | solubility (BCS) [1]: low solubility | aqueous solubility [2]: poor aqueous solubility
Compound: C[C@@H]1[C@H](c2ccccc2)C[C@H](NC(=O)c2cnc3c(c2)C[C@@]2(C3)C(=O)Nc3ncccc32)C(=O)N1CC(F)(F)F [Ubrogepant, (3′S)—N-((3 S,5S,6R)-6-methyl-2-oxo-5-phenyl-1-(2,2,2trifluoroethyl)piperidin-3-yl)-2′-oxo-1′,2′,5,7 tetrahydrospiro[cyclopenta[b]pyridine-6,3′-pyrrolo[2,3b]pyridine]-3-carboxamide]
